{"source": "patent US20230321108A1", "about": "“UNIT DOSAGE COMPOSITION OF AKT INHIBITOR” (NANJING CHIA TAI TIANQING PHARMACEUTICAL CO., LTD., priority 2020, published 2023)", "key": {"[1]": {"system": "LnCap human prostate cancer", "test": "Subcutaneous transplantation model of LnCap human prostate cancer", "type": "in vivo, NCG mice", "conditions": "for T/C / TGI / TV on the day of the end of the experiment: 18 days; for TV on the day of the end of the experiment / TV on the day of grouping and administration: mean ± SEM; for TV on the day of grouping and administration: baseline", "excerpt": "NCG mice, male, 8-10-week-old (when tumor cells were inoculated into the mice). […] LnCap cells in exponential growth phase were harvested and resuspended in PBS to a concentration suitable for subcutaneous tumor inoculation into mice. […] A formula for calculating a tumor volume: long diameter × short diameter^2 / 2. [table] […] Solvent: the solvent was a mixed solvent of PG, PEG400, and water, PG: PEG400: water=(20-40): (20-30): (30-50) (v: v: v). Any ratio within the range can be used. [table] All experimental results are shown as mean tumor volume ± SEM (standard error of mean). Whether there is a significant difference between the treatment group and the control group in terms of tumor volume was determined by the independent samples T test. All data were analyzed by using SPSS 18.0."}, "AKT3": {"target": "AKT3 (Homo sapiens (Human), UniProt Q9Y243)", "sequence (Q9Y243 whole entry)": "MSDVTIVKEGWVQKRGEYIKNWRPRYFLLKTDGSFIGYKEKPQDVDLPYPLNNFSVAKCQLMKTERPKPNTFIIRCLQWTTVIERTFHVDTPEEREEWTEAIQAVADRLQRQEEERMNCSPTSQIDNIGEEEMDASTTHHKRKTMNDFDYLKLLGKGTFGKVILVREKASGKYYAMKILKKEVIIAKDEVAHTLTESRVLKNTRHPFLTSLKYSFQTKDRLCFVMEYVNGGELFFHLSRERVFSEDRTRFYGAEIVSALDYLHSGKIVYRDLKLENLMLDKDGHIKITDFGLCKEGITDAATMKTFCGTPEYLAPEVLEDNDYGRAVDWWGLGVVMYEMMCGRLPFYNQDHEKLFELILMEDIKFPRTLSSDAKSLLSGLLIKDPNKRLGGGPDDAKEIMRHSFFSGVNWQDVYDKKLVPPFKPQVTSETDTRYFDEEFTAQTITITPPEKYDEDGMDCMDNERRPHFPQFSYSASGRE", "test": "AKT kinase activity assay (HTRF kinEASE TK), AKT3", "type": "biochemical", "conditions": "10 nM ATP, read-out: AKT3 enzyme activity IC50", "description": "The substrate and ATP were respectively diluted with the 1× kinase reaction buffer to a concentration 5 times the reaction concentration.\nA 5× enzyme working solution was prepared from the 1× kinase reaction buffer.\nA 4× streptavidin-XL665 working solution was prepared from the assay buffer.\n4× europium-labeled tyrosine kinase substrate antibody working solution The europium-labeled tyrosine kinase substrate antibody was 100-fold diluted with the assay reaction buffer to obtain a working solution.\nAfter all the reagents were prepared according to the above method, except for the enzyme, the reagents were equilibrated to the room temperature and loaded.\nb) 2 µL of previously prepared TK-biotin substrate solution (the concentration of the substrate for enzyme screening is shown in Table 1) was placed in each reaction well.\nThe plate was sealed with a sealing film, and the reaction solution was mixed until uniform and incubated at the room temperature for 10 min to allow the compound to fully react with and bind to the enzyme.\nd) 2 µL of ATP solution was placed in each reaction well to initiate a kinase reaction (the concentration of ATP for enzyme screening and reaction time are shown in Table 1).\ne) 5 min before the kinase reaction was completed, an assay solution was prepared.\nf) After the kinase reaction was completed, 5 µL of diluted streptavidin-XL665 was placed in each reaction well and mixed with the reaction solution until uniform, and the diluted europium-labeled tyrosine kinase substrate antibody assay solution was immediately added."}, "AKT1": {"target": "AKT1 (Homo sapiens (Human), UniProt P31749)", "sequence (P31749 whole entry)": "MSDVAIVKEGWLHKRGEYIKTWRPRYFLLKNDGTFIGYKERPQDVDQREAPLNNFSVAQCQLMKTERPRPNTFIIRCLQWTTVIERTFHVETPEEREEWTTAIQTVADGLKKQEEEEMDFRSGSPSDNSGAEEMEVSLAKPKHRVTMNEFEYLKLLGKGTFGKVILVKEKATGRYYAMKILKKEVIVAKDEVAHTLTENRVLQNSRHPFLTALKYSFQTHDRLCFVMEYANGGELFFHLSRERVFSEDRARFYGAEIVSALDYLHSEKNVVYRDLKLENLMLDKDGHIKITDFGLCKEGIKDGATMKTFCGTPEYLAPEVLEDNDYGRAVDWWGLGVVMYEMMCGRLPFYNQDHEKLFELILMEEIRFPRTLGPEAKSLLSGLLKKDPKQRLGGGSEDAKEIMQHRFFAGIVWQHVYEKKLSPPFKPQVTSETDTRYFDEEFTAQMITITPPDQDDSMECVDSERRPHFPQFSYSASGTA", "test": "AKT kinase activity assay (HTRF kinEASE TK), AKT1", "type": "biochemical", "conditions": "2 µM ATP, read-out: AKT1 enzyme activity IC50"}}}
{"smiles": "CC(C)NC[C@@H](C(=O)N1CCN(c2ncnc3c2[C@H](C)OC(=O)N3)[C@H]2C[C@H]21)c1ccc(Cl)cc1", "note": "(single isomer, unassigned; isomer 4) [Isomer 4 of Example 3]", "values": [{"measurement": "T/C", "setting": "[1]; 50 mg/kg QD po", "result": 10.29, "unit": "%"}, {"measurement": "TGI", "setting": "[1]; 50 mg/kg QD po", "result": 89.71, "unit": "%"}, {"measurement": "TV on the day of the end of the experiment", "setting": "[1]; 50 mg/kg QD po", "result": "99.30±40.55", "unit": "mm^3"}, {"measurement": "TV on the day of grouping and administration", "setting": "[1]; 50 mg/kg QD po", "result": "177.90±10.06", "unit": "mm^3"}, {"measurement": "tumor inhibiting effect in the in vivo experiment", "setting": "[1]; result in words", "result": "obvious tumor inhibiting effect"}, {"measurement": "IC50", "setting": "AKT3", "result": 0.00012, "unit": "µM"}, {"measurement": "IC50", "setting": "AKT1", "result": 0.0006, "unit": "µM"}]}
{"smiles": "C[C@@H]1CC(=O)Nc2ncnc(N3CCN(C(=O)[C@H](CNC4CC4)c4ccc(Cl)cc4)[C@@H]4C[C@@H]43)c21", "note": "[Isomer 2 of Example 2, (R)-4-((1S,6R)-5-((S)-2-(4-chlorophenyl)-3(cyclopropylamino)propionyl)-2,5-diazabicyclo[4.1.0]heptan-2-yl)-5-methyl-5,8-dihydropyrido[2,3-d]pyrimidin-7(6H)-one]", "values": [{"measurement": "T/C", "setting": "[1]; 50 mg/kg QD po", "result": 19.44, "unit": "%"}, {"measurement": "TGI", "setting": "[1]; 50 mg/kg QD po", "result": 80.56, "unit": "%"}, {"measurement": "TV on the day of the end of the experiment", "setting": "[1]; 50 mg/kg QD po", "result": "187.49±22.88", "unit": "mm^3"}]}
{"smiles": "C[C@@H]1CC(=O)Nc2ncnc(N3CCN(C(=O)[C@H](CNC4CC4)c4ccc(Cl)cc4)[C@H]4C[C@H]43)c21", "note": "(single isomer, unassigned) [Isomer 1 of Example 1]", "values": [{"measurement": "IC50", "setting": "AKT3", "result": 0.013, "unit": "µM"}]}
{"smiles": "CC(C)NC[C@@H](C(=O)N1CCN(c2ncnc3c2[C@H](C)OC(=O)N3)[C@H]2C[C@H]21)c1ccc(Cl)cc1", "note": "(single isomer, unassigned) [Isomer 2 of Example 3]", "values": [{"measurement": "IC50", "setting": "AKT3", "result": 0.089, "unit": "µM"}, {"measurement": "IC50", "setting": "AKT1", "result": 0.613, "unit": "µM"}]}
{"smiles": "CC(C)NC[C@@H](C(=O)N1CCN(c2ncnc3c2[C@H](C)CC(=O)N3)[C@H]2C[C@H]21)c1ccc(Cl)cc1", "note": "[Isomer 2 of Example 1, (R)-4-((1S,6R)-5-((S)-2-(4-chlorophenyl)-3-(isopropylamino)propionyl)-2,5-diazabicyclo[4.1.0]heptan-2-yl)-5-methyl-5,8-dihydropyrido[2,3-d]pyrimidin-7(6H)-one]", "values": [{"measurement": "T/C", "setting": "[1]; 12.5 mg/kg QD po", "result": 41.57, "unit": "%"}, {"measurement": "TGI", "setting": "[1]; 12.5 mg/kg QD po", "result": 58.43, "unit": "%"}, {"measurement": "TV on the day of the end of the experiment", "setting": "[1]; 12.5 mg/kg QD po", "result": "401.07±80.17", "unit": "mm^3"}, {"measurement": "TV on the day of grouping and administration", "setting": "[1]; 12.5 mg/kg QD po", "result": "177.76±6.67", "unit": "mm^3"}, {"measurement": "T/C", "setting": "[1]; 25 mg/kg QD po", "result": 15.90, "unit": "%"}, {"measurement": "TGI", "setting": "[1]; 25 mg/kg QD po", "result": 84.10, "unit": "%"}, {"measurement": "TV on the day of the end of the experiment", "setting": "[1]; 25 mg/kg QD po", "result": "153.42±23.11", "unit": "mm^3"}, {"measurement": "TV on the day of grouping and administration", "setting": "[1]; 25 mg/kg QD po", "result": "177.80±6.71", "unit": "mm^3"}, {"measurement": "T/C", "setting": "[1]; 50 mg/kg QD po", "result": 4.52, "unit": "%"}, {"measurement": "TGI", "setting": "[1]; 50 mg/kg QD po", "result": 95.48, "unit": "%"}, {"measurement": "TV on the day of the end of the experiment", "setting": "[1]; 50 mg/kg QD po", "result": "43.64±16.62", "unit": "mm^3"}, {"measurement": "TV on the day of grouping and administration", "setting": "[1]; 50 mg/kg QD po", "result": "177.78±6.64", "unit": "mm^3"}]}
